Counter-ions that a name gives are not always drawn.
These molecules were tested against T1, human adenosine A2A receptor (Homo sapiens, UniProt P29274) (assay: [3H]-SCH-58261 binding assay at the human adenosine A2A receptor). Conditions: not given.
T1 construct: expressed in transfected cells; host or cells: CHO cells, Semliki Forest virus expression system; washed membrane pellet used
Description: Human Adenosine A2A Receptor
The human adenosine A2A receptor was recombinantly expressed in chinese hamster ovary (CHO) cells using the semliki forest virus expression system. Cells were harvested, washed twice by centrifugation, homogenised and again washed by centrifugation. The final washed membrane pellet was suspended in a Tris (50 mM) buffer containing 120 mM NaCl, 5 mM KCl, 2 mM CaCl2 and 10 mM MgCl2 (pH 7.4) (buffer A). The [^3H]-SCH-58261 (Dionisotti et al., 1997, Br J Pharmacol 121, 353; 1 nM) binding assay was carried out in 96-well plates in the presence of 2.5 μg of membrane protein, 0.5 mg of Ysi-poly-1-lysine SPA beads and 0.1 U adenosine deaminase in a final volume of 200 μl of buffer A. Non-specific binding was defined using xanthine amine congener (XAC; 2 μM). Compounds were tested at 10 concentrations from 10 μM-0.3 nM. All assays were conducted in duplicate and repeated at least two times. Assay plates were incubated for 1 hour at room temperature before centrifugation and then bound ligand determined using a Packard Topcount scintillation counter. IC50 values were calculated using a non-linear curve fitting program and Ki values calculated using the Cheng-Prussoff equation.

T1 sequence (P29274 whole entry): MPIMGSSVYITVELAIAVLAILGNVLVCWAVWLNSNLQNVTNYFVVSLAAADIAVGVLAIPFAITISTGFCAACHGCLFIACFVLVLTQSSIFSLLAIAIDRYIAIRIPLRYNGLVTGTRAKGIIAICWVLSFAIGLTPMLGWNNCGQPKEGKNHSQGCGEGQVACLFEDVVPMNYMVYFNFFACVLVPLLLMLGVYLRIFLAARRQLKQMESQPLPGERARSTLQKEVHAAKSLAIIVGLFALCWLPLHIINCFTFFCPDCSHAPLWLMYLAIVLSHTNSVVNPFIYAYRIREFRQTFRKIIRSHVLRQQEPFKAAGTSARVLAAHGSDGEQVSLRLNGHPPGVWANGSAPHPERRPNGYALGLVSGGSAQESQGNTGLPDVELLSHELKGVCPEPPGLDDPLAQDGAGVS

Question: How did the Ki turn out when `COc1ccc(N2CCOCC2)c2sc(NC(=O)N3CCC(=O)CC3)nc12` [Example 342, 4-Oxo-piperidine-1-carboxylic acid (4-methoxy-7-morpholin-4-yl-benzothiazol-2-yl)-amide] was run?
Answer: The Ki was 3.16 nM.

Same assay, conditions: read-out: pKi value (converted)

Question: How did the Ki turn out when `COc1ccc(-c2ccccc2)c2sc(NC(=O)c3ccc(CN4CC[C@H](N(C)C)C4)cc3)nc12` [Example 125, 4-(3 (S)-Dimethylamino-pyrrolidin-1-ylmethyl)-N-(4-methoxy-7-phenyl-benzothiazol-2-yl)-benzamide hydrochlorde salt (1:2)] was run?
Answer: Its Ki is 1 nM.

Question: For `CNCc1cccc(C(=O)Nc2nc3c(OC)ccc(N4CCOCC4)c3s2)c1` [Example 279, N-(4-Methoxy-7-morpholin-4-yl-benzothiazol-2-yl)-3-methylaminomethyl-benzamide], which Ki is on record?
Answer: Its Ki is 1.58 nM.

Question: `COc1ccc(N2CCOCC2)c2sc(NC(=O)c3ccc(Cl)c(CN4CCCC4)c3)nc12` [Example 283, 4-Chloro-N-(4-methoxy-7-morpholin-4-yl-benzothiazol-2-yl)-3-pyrrolidin-1-ylmethyl-benzamide] was tested. Which Ki did it give?
Answer: The Ki was 1 nM.

Question: How did the Ki turn out when `COCc1ccc(C(=O)Nc2nc3c(OC)ccc(N4CCOCC4)c3s2)cc1` [Example 315, 4-Methoxymethyl-N-(4-methoxy-7-morpholin-4-yl-benzothiazol-2-yl)-benzamide] was run?
Answer: Its Ki is 2.51 nM.

Question: How did the Ki turn out when `COc1ccc(-c2ccccc2)c2sc(NC(=O)c3ccc(CNCc4ccncc4)cc3)nc12` [Example 96, N-(4-Methoxy-7-phenyl-benzothiazol-2-yl)-4-{[(pyridin-4-ylmethyl)-amino]-methyl}-benzamide hydrochloride salt (1:2)] was run?
Answer: Its Ki is 1.58 nM.

Question: With `COCCOCc1ccc(C(=O)Nc2nc3c(OC)ccc(N4CCOCC4)c3s2)cc1` [Example 314, 4-(2-Methoxy-ethoxymethyl)-N-(4-methoxy-7-morpholin-4-yl-benzothiazol-2-yl)-benzamide] as the molecule, how does the Ki read?
Answer: The Ki was 3.16 nM.

Question: For `COc1ccc(N2CCOCC2)c2sc(NC(=O)C3CCN(C(=O)OC(C)(C)C)CC3)nc12` [Example 326, 4-(4-Methoxy-7-morpholin-4-yl-benzothiazol-2-ylcarbamoyl)-piperidine-1-carboxylic acid tert-butyl ester], which Ki is on record?
Answer: The Ki was 3.16 nM.

Question: How did the Ki turn out when `COc1ccc(N2CCOCC2)c2sc(NC(=O)c3ccc(F)cc3)nc12` [Example 275, 4-Fluoro-N-(4-methoxy-7-morpholin-4-yl-benzothiazol-2-yl)-benzamide] was run?
Answer: Its Ki is 2 nM.

Question: Which Ki does the source give for `CCN(CCOC)Cc1cc(C(=O)Nc2nc3c(OC)ccc(N4CCOCC4)c3s2)ccc1Cl` [Example 278, 4-Chloro-3-{[ethyl-(2-methoxy-ethyl)-amino]-methyl}-N-(4-methoxy-7-morpholin-4-yl-benzothiazol-2-yl)-benzamide] here?
Answer: The Ki was 3.16 nM.

Question: For `COC(=O)N(C)Cc1ccc(C(=O)Nc2nc3c(OC)ccc(N4CCOCC4)c3s2)cc1` [Example 369, [4-(4-Methoxy-7-morpholin-4-yl-benzothiazol-2-ylcarbamoyl)-benzyl]-methyl-carbamic acid methyl ester], which Ki is on record?
Answer: The Ki was 0.631 nM.

Question: How did the Ki turn out when `COCCNCc1cccc(C(=O)Nc2nc3c(OC)ccc(N4CCOCC4)c3s2)c1` [Example 286] was run?
Answer: Its Ki is 1.58 nM.

Question: How did the Ki turn out when `COc1ccc(N2CCOCC2)c2sc(NC(=O)C3CCN(C(C)=O)CC3)nc12` [Example 327, 1-Acetyl-piperidine-4-carboxylic acid (4-methoxy-7-morpholin-4-yl-benzothiazol-2-yl)-amide] was run?
Answer: Its Ki is 3.16 nM.

Question: How did the Ki turn out when `COc1ccc(N2CCOCC2)c2sc(NC(=O)c3ccc(C(F)(F)F)cc3)nc12` [Example 271, N-(4-Methoxy-7-morpholin-4-yl-benzothiazol-2-yl)-4-trifluoromethyl-benzamide] was run?
Answer: Its Ki is 2.51 nM.

Question: `CNCc1ccc(C(=O)Nc2nc3c(OC)ccc(N4CCOCC4)c3s2)cc1` [Example 292, N-(4-Methoxy-7-morpholin-4-yl-benzothiazol-2-yl)-4-methylaminomethyl-benzamide] was tested. Which Ki did it give?
Answer: Its Ki is 1.58 nM.

Question: With `COc1ccc(N2CCOCC2)c2sc(NC(=O)c3cccc(CN4CCCC4)c3)nc12` [Example 289, N-(4-Methoxy-7-morpholin-4-yl-benzothiazol-2-yl)-3-pyrrolidin-1-ylmethyl-benzamide] as the molecule, how does the Ki read?
Answer: Its Ki is 1.26 nM.

Question: `COc1ccc(-c2ccccc2)c2sc(NC(=O)c3ccc(CO)cc3)nc12` [Example 17, 4-Hydroxymethyl-N-(4-methoxy-7-phenyl-benzothiazol-2-yl)-benzamide] was tested. Which Ki did it give?
Answer: The Ki was 0.501 nM.

Question: With `COc1ccc(-c2ccccc2)c2sc(NC(=O)c3ccc(Cn4ccnc4)cc3)nc12` [Example 100, 4-Imidazol-1-ylmethyl-N-(4-methoxy-7-phenyl-benzothiazol-2-yl)-benzamide hydrochloride salt (1:1)] as the molecule, how does the Ki read?
Answer: Its Ki is 0.501 nM.

Question: Which Ki does the source give for `CCOCCN(C)Cc1ccc(C(=O)Nc2nc3c(OC)ccc(N4CCOCC4)c3s2)cc1` [Example 304, 4-{[(2-Ethoxy-ethyl)-methyl-amino]-methyl}-N-(4-methoxy-7-morpholin-4-yl-benzothiazol-2-yl)-benzamide] here?
Answer: Its Ki is 3.16 nM.

Question: With `CCOCCNCc1ccc(C(=O)Nc2nc3c(OC)ccc(N4CCOCC4)c3s2)cc1` [Example 290, 4-[(2-Ethoxy-ethylamino)-methyl]-N-(4-methoxy-7-morpholin-4-yl-benzothiazol-2-yl)-benzamide] as the molecule, how does the Ki read?
Answer: Its Ki is 2.51 nM.

Question: How did the Ki turn out when `COc1ccc(-c2ccccc2)c2sc(NC(=O)c3ccc(C)s3)nc12` [Example 3, 5-Methyl-thiophene-2-carboxylic acid (4-methoxy-7-phenyl-benzothiazol-2-yl)-amide] was run?
Answer: Its Ki is 1.58 nM.

Question: How did the Ki turn out when `COCCN(C)Cc1ccc(C(=O)Nc2nc3c(OC)ccc(-c4csc(-c5ccc(C)nc5)n4)c3s2)cc1` [Example 238, 4-{[(2-Methoxy-ethyl)-methyl-amino]-methyl}-N-{4-methoxy-7-[2-(6-methyl-pyridin-3-yl)-thiazol-4-yl]-benzothiazol-2-yl}-benzamide] was run?
Answer: Its Ki is 2 nM.

Question: With `COc1ccc(-c2ccccc2)c2sc(NC(=O)c3ccc(C)o3)nc12` [Example 10, 5-Methyl-furan-2-carboxylic acid (4-methoxy-7-phenyl-benzothiazol-2-yl)-amide] as the molecule, how does the Ki read?
Answer: The Ki was 1 nM.

Question: With `COc1ccc(N2CCOCC2)c2sc(NC(=O)c3ccc(Cn4ccnc4C)cc3)nc12` [Example 308, N-(4-Methoxy-7-morpholin-4-yl-benzothiazol-2-yl)-4-(2-methyl-imidazol-1-yl-methyl)-benzamide] as the molecule, how does the Ki read?
Answer: The Ki was 0.794 nM.

Question: `COc1ccc(-c2ccccc2)c2sc(NC(=O)c3ccc(CN4CCC(O)CC4)cc3)nc12` [Example 108, 4-(4-Hydroxy-piperidin-1-ylmethyl)-N-(4-methoxy-7-phenyl-benzothiazol-2-yl)-benzamide hydrochloride salt (1:1)] was tested. Which Ki did it give?
Answer: The Ki was 1.26 nM.

Question: For `COc1ccc(-c2cccc(N)c2)c2sc(NC(=O)c3ccc(C)s3)nc12` [Example 62, 5-Methyl-thiophene-2-carboxylic acid [7-(3-amino-phenyl)-4-methoxy-benzothiazol-2-yl]-amide], which Ki is on record?
Answer: The Ki was 0.794 nM.

Question: `COc1ccc(N2CCOCC2)c2sc(NC(=O)c3ccc(CN4CCN(C)CC4)cc3)nc12` [Example 309, N-(4-Methoxy-7-morpholin-4-yl-benzothiazol-2-yl)-4-(4-methyl-piperazin-1-yl-methyl)-benzamide] was tested. Which Ki did it give?
Answer: The Ki was 3.16 nM.

Question: For `COCCN(C)Cc1cccc(C(=O)Nc2nc3c(OC)ccc(N4CCOCC4)c3s2)c1` [Example 287, 3-{[(2-Methoxy-ethyl)-methyl-amino]-methyl}-N-(4-methoxy-7-morpholin-4-yl-benzothiazol-2-yl)-benzamide], which Ki is on record?
Answer: Its Ki is 3.16 nM.

Question: How did the Ki turn out when `COc1ccc(N2CCSCC2)c2sc(NC(=O)c3ccccc3)nc12` [Example 317, N-(4-Methoxy-7-thiomorpholin-4-yl-benzothiazol-2-yl)-benzamide] was run?
Answer: Its Ki is 2.51 nM.

Question: For `COc1ccc(N2CCOCC2)c2sc(NC(=O)c3ccccc3)nc12` [Example 277, N-(4-Methoxy-7-morpholin-4-yl-benzothiazol-2-yl)-benzamide], which Ki is on record?
Answer: Its Ki is 2 nM.

Question: Which Ki does the source give for `COc1ccc(-c2ccccc2)c2sc(NC(=O)c3ccc(CN)cc3)nc12` [Example 121, 4-Aminomethyl-N-(4-methoxy-7-phenyl-benzothiazol-2-yl)-benzamide hydrochloride salt (1:1)] here?
Answer: Its Ki is 1 nM.

Question: With `COc1ccc(-c2ccccc2)c2sc(NC(=O)c3ccc(F)cc3)nc12` [Example 23, 4-Fluoro-N-(4-methoxy-7-phenyl-benzothiazol-2-yl)-benzamide] as the molecule, how does the Ki read?
Answer: Its Ki is 1.26 nM.

Question: How did the Ki turn out when `COc1ccc(N2CCOCC2)c2sc(NC(=O)c3ccc(CSCCN(C)C)cc3)nc12` [Example 298, 4-(2-Dimethylamino-ethylsulfanylmethyl)-N-(4-methoxy-7-morpholin-4-yl-benzothiazol-2-yl)-benzamide] was run?
Answer: Its Ki is 2 nM.

Question: Which Ki does the source give for `COCCNCc1cc(C(=O)Nc2nc3c(OC)ccc(N4CCOCC4)c3s2)ccc1Cl` [Example 282, 4-Chloro-3-[(2-methoxy-ethylamino)-methyl]-N-(4-methoxy-7-morpholin-4-yl-benzothiazol-2-yl)-benzamide] here?
Answer: The Ki was 2.51 nM.

Question: For `COc1ccc(-c2ccnc(C)c2)c2sc(NC(=O)c3ccc(C)s3)nc12` [Example 61, 5-Methyl-thiophene-2-carboxylic acid [4-methoxy-7-(2-methyl-pyridin-4-yl)-benzothiazol-2-yl]-amide], which Ki is on record?
Answer: The Ki was 1.26 nM.

Question: `COc1ccc(-c2ccccc2)c2sc(NC(=O)N3CCOCC3)nc12` [Example 157, Morpholine-4-carboxylic acid (4-methoxy-7-phenyl-benzothiazol-2-yl)-amide] was tested. Which Ki did it give?
Answer: Its Ki is 1.26 nM.

Question: How did the Ki turn out when `COc1ccc(-c2csc(-c3ccc(C)nc3)n2)c2sc(NC(=O)N3CCOCC3)nc12` [Example 258] was run?
Answer: The Ki was 1.26 nM.

From patent US7317007B2, “Benzothiazole derivatives with activity as adenosine receptor ligands” (Hoffmann-La Roche Inc., priority 2000, dated 2008)
